Source: US8629251B2, “Specific detection and quantification of phosphatidic acid using an Arabidopsis trigalactosyldiacylglycerol-4 (TGD4) protein” (Board of Trustees of Michigan State University, priority 2008, dated 2014)

Columns and labels:
[1] = molecular target: T1, Arabidopsis TGD2, DsRed-TGD2C WT (DR-WT) fusion protein, residues 119-381, SEQ ID NO:107 (Arabidopsis thaliana, UniProt Q9LTR2); assay: Liposome-association assay (mixed PA/PC liposomes), DsRed-TGD2C WT; format: binding
T1 construct: made in house; host or cells: Escherichia coli BL21 (DE3)
T1 sequence (Q9LTR2 119-381): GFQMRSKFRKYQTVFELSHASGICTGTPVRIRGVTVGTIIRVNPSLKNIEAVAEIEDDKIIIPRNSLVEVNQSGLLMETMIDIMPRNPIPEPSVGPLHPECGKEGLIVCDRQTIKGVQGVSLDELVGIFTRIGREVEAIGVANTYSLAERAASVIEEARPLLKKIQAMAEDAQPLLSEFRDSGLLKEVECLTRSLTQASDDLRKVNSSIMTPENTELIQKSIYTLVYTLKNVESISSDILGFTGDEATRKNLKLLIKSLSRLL
Experimental: FIG. 2A: Analysis by liposome-association assay. A mixture of dioleoyl-PA and dioleoyl-PC was used where the weight percent of PA was varied from 0-100% (wt/wt), maintaining the total lipid invariant at 250 μg. 1 μg protein was used. P, protein recovered in the absence of lipids.
In this assay, purified recombinant proteins were incubated with liposomes for 30 min at 30° C. before centrifugation at 20,000 g for 10 min to pellet the liposomes. Proteins bound to the liposomes were found associated with the lipid pellet, whereas non-binding proteins remained in the supernatant. In an effort to determine the optimal concentration of PA required for high specificity binding, a PA/PC liposome mixture containing varying weight fractions of PA was prepared and incubated with DsRed-TGD2CWT or DsRed alone.
(§1) The liposome association assay was performed as previously reported. (31). Briefly, lipids (dioleoyl-phosphatidylcholine, DOPC or dioleoyl-PA, DOPA) were incubated in TBS (50 mM Tris-HCl, pH 7; 0.1 M NaCl) at 37° C. for an hour followed by vigorous vortexing for 5 min. The liposomes were precipitated at 20,000 g and washed twice with ice-cold TBS.
(§2) Liposomes (200 μg) were mixed with purified DsRed-TGD2 fusion protein and TBS to make a final 100 μL solution. The mixture was incubated at 30° C. for 30 min and washed twice with ice-cold TBS by centrifugation at 20,000 g at 4° C. The liposome pellet mixed with sample buffer was analyzed by SDS-PAGE (28). Immuno-detection of the His-tagged protein was accomplished using the above mentioned Penta-His antibody at 1:15,000 and the anti mouse antibody at 1:75,000 dilution.
(§3) The protein band was visualized by chemiluminescent detection kit from Sigma. The autoradiography film was scanned, distinct protein bands were quantified using computer software Multi Gauge V3.0 (Fujifilm USA, Valhalla, N.Y.) and resulted data were plotted and analyzed by OriginPro8 (Origin lab corporation, Northampton, Mass.).

[2] = molecular target: Arabidopsis TGD2, DsRed-TGD2C D1 (Δ221-250, SEQ ID NO:43) (Arabidopsis thaliana, UniProt Q9LTR2, DEL221-250); assay: Liposome-association assay, TGD2C D1 (Δ221-250); format: binding; settings: FIG. 3C
Sequence of Arabidopsis TGD2, DsRed-TGD2C D1 (Δ221-250, SEQ ID NO:43) (Q9LTR2 other isoform, or with tags, fused parts or gaps DEL221-250): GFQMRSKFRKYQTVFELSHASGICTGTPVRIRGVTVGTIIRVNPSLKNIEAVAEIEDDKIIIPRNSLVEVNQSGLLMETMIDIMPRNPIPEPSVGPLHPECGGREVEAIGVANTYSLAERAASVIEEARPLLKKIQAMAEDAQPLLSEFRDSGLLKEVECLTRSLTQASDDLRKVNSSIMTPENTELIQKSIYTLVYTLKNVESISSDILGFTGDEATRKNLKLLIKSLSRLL
Experimental: as §1, §2, §3

[3] = test system: DsRed protein (Discosoma sp. red fluorescent protein); assay: Liposome-association assay, DsRed control; format: binding; settings: FIG. 3B
Experimental: as §1, §2, §3

[4] = molecular target: T2, Arabidopsis TGD4, DsRED-TGD4-His, full-length TGD4 1-479 (SEQ ID NO: 132) (Arabidopsis thaliana, UniProt Q9M903); assay: Liposome association assay, DsRED-TGD4-His; format: binding; settings: pH range of 6.4-7.8, FIG. 18E
T2 sequence (Q9M903 1-479): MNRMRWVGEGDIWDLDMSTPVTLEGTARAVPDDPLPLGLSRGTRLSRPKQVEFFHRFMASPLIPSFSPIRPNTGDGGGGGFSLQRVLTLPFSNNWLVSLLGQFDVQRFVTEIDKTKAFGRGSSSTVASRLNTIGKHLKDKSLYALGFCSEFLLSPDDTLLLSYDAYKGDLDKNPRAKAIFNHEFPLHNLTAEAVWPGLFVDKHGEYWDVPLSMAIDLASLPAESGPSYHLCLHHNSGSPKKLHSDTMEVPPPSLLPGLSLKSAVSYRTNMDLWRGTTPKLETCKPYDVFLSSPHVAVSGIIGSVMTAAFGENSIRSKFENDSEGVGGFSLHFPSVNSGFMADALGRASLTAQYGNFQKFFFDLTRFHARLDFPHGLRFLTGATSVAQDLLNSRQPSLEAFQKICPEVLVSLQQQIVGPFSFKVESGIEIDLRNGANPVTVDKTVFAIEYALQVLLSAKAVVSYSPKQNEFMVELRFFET
Experimental: (§4) Liposome Association Assay:
(§5) The liposome association assay was adapted from (Awai et al., 2006, Lu and Benning, 2009) with minor modifications. Dioleoyl-PtdCho and PtdOH with different acyl chain lengths and desaturation levels were used for making liposomes. In other liposomes 1-palmitoyl-2-(12-((7-nitro-2-1,3-benzoxadiazol-4-yl)amino)dodecanoyl)-sn-glycero-3-phosphate (NBD-PtdOH; Avanti, Alabaster, Ala.) was used. The lipids were mixed at indicated ratios to give a total lipid amount of 250 μg. The lipids were dried under a stream of nitrogen, resuspended in 0.5 ml TBS buffer with 0.2 M choline chloride and hydrated at 37° C. for 1 hour followed by vigorous vortexing for 2 minutes. The resulting multi-lamellar vesicles were centrifuged at 13,000×g for 10 minutes and then washed once with TBS buffer containing 0.2 M choline chloride. The liposomes were resuspended into 100 μl TBS buffer with 0.2 M choline chloride and incubated with 2 μg purified DsRED-TGD4-His protein and its derivatives. The protein liposome mixture was incubated on ice for 30 minutes followed by centrifugation at 13,000×g for 10 minutes and two washes with 500 μl TBS containing 0.2 M choline chloride. The resulting protein-liposome pellet was resuspended in 20 μl 2× Laemmli buffer (Laemmli, 1970) and processed by SDS-PAGE (Shapiro and Maizel, 1969).

[5] = molecular target: T3, Arabidopsis TGD4, DsRED-ΔTGD4-His (hydrophobic region 287D-309F deleted, SEQ ID NO:133) (Arabidopsis thaliana, UniProt Q9M903, DEL287-309); assay: Liposome association assay, DsRED-ΔTGD4-His; format: binding; settings: dioleoyl-PtdOH/dioleoyl-PtdCho liposomes, 0 to 80% PtdOH, FIG. 19B
T3 construct: b369 deletes nt 859-924 (22 codons)
T3 sequence (Q9M903 other isoform, or with tags, fused parts or gaps DEL287-309): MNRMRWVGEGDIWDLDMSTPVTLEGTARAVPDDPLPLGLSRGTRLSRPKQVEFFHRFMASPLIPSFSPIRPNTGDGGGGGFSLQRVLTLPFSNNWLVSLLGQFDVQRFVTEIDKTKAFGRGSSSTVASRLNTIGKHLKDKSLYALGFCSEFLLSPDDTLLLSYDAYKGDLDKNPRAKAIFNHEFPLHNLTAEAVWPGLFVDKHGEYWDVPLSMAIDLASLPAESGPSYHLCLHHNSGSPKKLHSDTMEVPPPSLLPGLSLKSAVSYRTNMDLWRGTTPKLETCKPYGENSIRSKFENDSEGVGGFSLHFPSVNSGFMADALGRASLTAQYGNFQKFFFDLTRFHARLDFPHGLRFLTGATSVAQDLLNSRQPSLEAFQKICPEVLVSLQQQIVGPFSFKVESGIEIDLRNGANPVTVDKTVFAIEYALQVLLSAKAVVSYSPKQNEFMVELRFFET
Experimental: as §4, §5

RafC (Raf-1 kinase) = settings: literature (ref. 11); cited from earlier work
[6] = DR-WT as quantification control, mixed PA/PC liposomes, FIGS. 5A-5C

Q: What does the source list for `CCCCCCCC/C=C\CCCCCCCC(=O)OC[C@H](COP(=O)(O)O)OC(=O)CCCCCCC/C=C\CCCCCCCC` [PA, phosphatidic acid]?
A: Hill number, PA binding [1, 6]: 2.8; modified Kd, PA binding [1, 6]: 37.66 mol %; binding to PA or PC ([1]; PC, PA/PC or PA liposomes, FIG. 3B): significant binding; Hill number, PA binding ([1]; dioleoyl-PA/dioleoyl-PC liposomes, FIG. 2B): 5.8; PA binding [2]: did not seem to affect PA binding; binding to PC or PA [3]: does not display binding; effect of pH on PtdOH binding [4]: not affected; PtdOH binding activity [5]: did not require the central hydrophobic region of TGD4; RafC-PA association (RafC (Raf-1 kinase)): 20 mol % PA
